Test results reported in ChEMBL document CHEMBL1201862, “PubChem BioAssay data set” (2004).
The source made the active and inactive calls. Rule as the data show it, for most assays here: actives have a measured EC50 and inactives only a lower limit.

Columns and labels:
[1] = target: T1, Heat shock factor protein 1 (Mus musculus, UniProt P38532); experiment: decrease of HSF1-responsive luciferase luminescence – cell-based, NIH3T3, dose retest, confirmation (AID 2382); format: functional;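 also: NIH3T3 fibroblasts with HSF1-driven luciferase reporter stressed by proteasome inhibitor MG132; luminescence from HSF1-driven luciferase expression after 8 hours of MG132 stress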
T1 sequence (P38532 whole entry): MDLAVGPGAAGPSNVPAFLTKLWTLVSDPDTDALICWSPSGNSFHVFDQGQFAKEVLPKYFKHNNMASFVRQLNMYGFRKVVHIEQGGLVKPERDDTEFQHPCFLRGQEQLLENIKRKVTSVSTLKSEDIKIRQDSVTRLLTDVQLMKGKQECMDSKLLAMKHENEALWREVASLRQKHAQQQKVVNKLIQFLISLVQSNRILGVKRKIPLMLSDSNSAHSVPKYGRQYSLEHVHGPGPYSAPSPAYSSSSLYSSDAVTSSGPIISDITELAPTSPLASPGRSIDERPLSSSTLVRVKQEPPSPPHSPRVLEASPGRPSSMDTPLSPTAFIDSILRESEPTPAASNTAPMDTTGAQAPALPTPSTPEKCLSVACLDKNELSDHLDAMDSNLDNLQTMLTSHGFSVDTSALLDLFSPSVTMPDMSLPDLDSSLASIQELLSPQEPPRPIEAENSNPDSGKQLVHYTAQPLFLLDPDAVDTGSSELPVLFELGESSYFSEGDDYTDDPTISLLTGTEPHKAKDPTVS

INS1 = experiment: INS-1E survival protection against cytokine death – cell-based, luminescence, retest, dose response (AID 449756); format: functional; conditions: Rattus norvegicus;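 also: cell death triggered by IL-1 beta plus TNF-alpha plus IFN-gamma mixture; protective hits raise ATP signal compared with cytokine alone wells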
Protein RecA = target: T2, Protein RecA (Mycobacterium tuberculosis, UniProt P9WHJ3); experiment: Fluorescence Cell-Free Homogeneous Dose Retest to Identify Inhibitors of RecA-Intein Splicing Activity. [Related pubchem assays (depositor defined):AID2097, AID2223, AID489010, AID492950]; format: functional
T2 sequence (P9WHJ3 whole entry): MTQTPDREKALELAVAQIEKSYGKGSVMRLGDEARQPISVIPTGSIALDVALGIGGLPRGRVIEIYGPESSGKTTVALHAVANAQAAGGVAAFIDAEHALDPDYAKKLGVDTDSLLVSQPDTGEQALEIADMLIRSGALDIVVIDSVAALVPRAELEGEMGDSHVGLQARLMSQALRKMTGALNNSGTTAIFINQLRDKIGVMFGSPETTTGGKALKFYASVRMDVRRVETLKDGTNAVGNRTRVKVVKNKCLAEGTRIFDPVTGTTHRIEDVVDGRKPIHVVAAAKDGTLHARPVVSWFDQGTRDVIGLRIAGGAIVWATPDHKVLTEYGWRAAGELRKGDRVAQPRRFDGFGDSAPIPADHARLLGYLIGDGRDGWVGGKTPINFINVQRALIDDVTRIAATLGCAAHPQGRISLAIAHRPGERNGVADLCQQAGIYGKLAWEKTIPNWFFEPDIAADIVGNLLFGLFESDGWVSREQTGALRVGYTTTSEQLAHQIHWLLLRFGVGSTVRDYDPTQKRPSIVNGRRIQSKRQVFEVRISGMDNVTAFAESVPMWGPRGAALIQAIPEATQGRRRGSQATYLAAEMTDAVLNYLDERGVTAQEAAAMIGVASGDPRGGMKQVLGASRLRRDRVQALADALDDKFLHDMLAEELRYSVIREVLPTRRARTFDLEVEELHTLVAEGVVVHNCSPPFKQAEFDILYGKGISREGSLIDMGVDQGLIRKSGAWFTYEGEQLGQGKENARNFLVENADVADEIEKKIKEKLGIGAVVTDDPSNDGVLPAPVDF

[2] = target: T3, Replicative DNA helicase DnaB (Mycobacterium tuberculosis, UniProt P9WMR3); experiment: DnaB intein splicing inhibitors, dose response, biochemical, cell-free fluorescence (AID 449749); format: functional
T3 sequence (P9WMR3 whole entry): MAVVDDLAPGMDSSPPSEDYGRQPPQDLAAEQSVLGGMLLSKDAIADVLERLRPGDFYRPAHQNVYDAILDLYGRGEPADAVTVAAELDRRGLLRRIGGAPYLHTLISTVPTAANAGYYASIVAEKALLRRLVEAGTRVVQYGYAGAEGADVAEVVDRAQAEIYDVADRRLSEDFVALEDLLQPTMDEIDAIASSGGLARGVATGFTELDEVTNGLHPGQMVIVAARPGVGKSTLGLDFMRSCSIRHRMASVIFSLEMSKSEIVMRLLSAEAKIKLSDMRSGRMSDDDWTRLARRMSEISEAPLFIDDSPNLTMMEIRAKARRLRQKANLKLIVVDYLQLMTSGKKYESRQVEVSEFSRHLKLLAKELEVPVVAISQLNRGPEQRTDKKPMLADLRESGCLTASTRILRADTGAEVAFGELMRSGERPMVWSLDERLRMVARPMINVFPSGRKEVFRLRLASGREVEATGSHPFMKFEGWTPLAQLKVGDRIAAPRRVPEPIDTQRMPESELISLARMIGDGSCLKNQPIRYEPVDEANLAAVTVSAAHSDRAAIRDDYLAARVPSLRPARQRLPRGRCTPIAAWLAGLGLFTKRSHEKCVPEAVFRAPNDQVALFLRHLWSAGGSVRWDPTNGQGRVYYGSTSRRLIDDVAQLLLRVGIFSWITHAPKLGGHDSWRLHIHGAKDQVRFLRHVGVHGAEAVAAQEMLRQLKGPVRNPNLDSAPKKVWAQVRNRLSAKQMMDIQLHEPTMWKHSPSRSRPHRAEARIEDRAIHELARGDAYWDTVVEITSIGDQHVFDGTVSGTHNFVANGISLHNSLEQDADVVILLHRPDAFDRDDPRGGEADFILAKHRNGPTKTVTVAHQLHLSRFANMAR

[3] = Luminescence Cell-Based Dose Response HTS to Identify Activators of Luciferase Translation or Activity in H4 […] Cells. [Related pubchem assays: 1829 (Project Summary), 1814 (Primary HTS)]; format: functional
H4 = experiment: Luminescence Cell-Based Dose Response HTS to Identify Activators of 5'UTR Stem-Loop Driven Prion Protein mRNA Translation in H4 Neuroglioblastoma Cells. [Related pubchem assays: 1829 (Project Summary), 1814 (Primary HTS)]; format: functional; conditions: Homo sapiens
[4] = Trypanosoma cruzi growth suppression in host cells – NIH3T3 host cells, beta-gal luminescence, confirmation (AID 2044); format: functional, cell-based;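 also: intracellular parasites grown in NIH/3T3 mouse fibroblasts as host cells; luminescent beta-galactosidase reporter signal from transgenic T. cruzi replicating inside host cells; inhibitors lower the luminescence signal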
[5] = NIH3T3 cell viability loss – ATP luminescence, mouse fibroblasts, counter-screen, dose response (AID 2010); format: functional, cell-based;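 also: cells exposed to compound for about 90 hours before reading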
Streptococcus = experiment: GAS UMAA2166 growth inhibition – luminescence, BacTiterGlo, counter-screen for streptokinase expression inhibitor project, dose response (AID 1915); format: functional, organism-based;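 also: potency for reduction of bacterial viability or growth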
[6] = tested on: Streptococcus sp. 'group A'; experiment: Streptococcus pyogenes SK(-)GAS viability under kanamycin – luminescence, BacTiterGlo, confirmation, counter-screen for streptokinase expression inhibitor project, dose response (AID 1900); format: functional, organism-based
Streptokinase A = target: T4, Streptokinase A (Streptococcus pyogenes serotype M1, UniProt P10520); experiment: viability-normalized secreted streptokinase activity reduction – plasminogen activation absorbance, OD405, dose response (AID 1914); format: functional, Streptococcus pyogenes M1 GAS;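 also: secreted streptokinase activity via plasminogen activation per viability signal from cell pellet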
T4 sequence (P10520 whole entry): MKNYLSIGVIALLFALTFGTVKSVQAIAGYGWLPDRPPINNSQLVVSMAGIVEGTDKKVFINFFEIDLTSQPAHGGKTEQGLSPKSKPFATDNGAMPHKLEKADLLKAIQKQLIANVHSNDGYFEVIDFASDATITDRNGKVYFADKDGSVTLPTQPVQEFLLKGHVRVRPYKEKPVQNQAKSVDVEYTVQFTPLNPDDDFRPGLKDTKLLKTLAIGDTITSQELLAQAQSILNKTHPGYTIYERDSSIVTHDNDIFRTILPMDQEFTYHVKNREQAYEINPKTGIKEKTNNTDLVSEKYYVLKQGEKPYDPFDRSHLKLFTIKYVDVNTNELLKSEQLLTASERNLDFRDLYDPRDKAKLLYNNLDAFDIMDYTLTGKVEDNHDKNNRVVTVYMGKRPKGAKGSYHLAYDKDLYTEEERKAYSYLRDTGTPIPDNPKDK

[7] = target: T5, Rac GTPase-activating protein 1 (Homo sapiens, UniProt Q9H0H5); experiment: blockers of MgcRacGAP-driven Rac1 GTP hydrolysis – biochemical, ADP Hunter fluorescence, primary and confirmatory, confirmation (AID 624330); format: functional
T5 sequence (Q9H0H5 whole entry): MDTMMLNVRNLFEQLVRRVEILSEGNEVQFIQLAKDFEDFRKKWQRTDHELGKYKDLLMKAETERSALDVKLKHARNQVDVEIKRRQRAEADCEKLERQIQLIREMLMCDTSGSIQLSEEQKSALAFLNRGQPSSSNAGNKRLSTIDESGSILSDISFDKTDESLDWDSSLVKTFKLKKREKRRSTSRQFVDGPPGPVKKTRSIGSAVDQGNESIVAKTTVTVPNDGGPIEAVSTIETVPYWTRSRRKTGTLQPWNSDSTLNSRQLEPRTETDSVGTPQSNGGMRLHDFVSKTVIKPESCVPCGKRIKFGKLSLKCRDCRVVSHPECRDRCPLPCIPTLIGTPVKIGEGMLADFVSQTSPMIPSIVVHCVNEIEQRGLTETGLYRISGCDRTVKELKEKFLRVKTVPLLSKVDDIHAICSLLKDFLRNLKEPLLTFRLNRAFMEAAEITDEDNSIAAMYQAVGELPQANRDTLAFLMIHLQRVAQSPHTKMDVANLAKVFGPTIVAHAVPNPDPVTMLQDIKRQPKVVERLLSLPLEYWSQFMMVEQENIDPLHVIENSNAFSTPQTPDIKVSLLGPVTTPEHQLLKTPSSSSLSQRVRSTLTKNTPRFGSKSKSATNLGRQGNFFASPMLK

SMILES: NC(=NOC(=O)Cc1ccccc1[N+](=O)[O-])c1cccnc1
- EC50 [1]: > 195 µM (not active)

SMILES: COc1ccc(C2CC(c3cccc(C)c3)n3nc(N)nc3N2)cc1 (stereo unspecified)
- AC50 (INS1): > 260 µM (inactive)

SMILES: Cn1c2c(c(=O)n(C)c1=O)[C@@]1(C(=O)Nc3ccccc31)C(C#N)=C(N)O2
- EC50 (Protein RecA): 17.5 µM (active)
- AC50 [2]: 34.1 µM (inconclusive)

SMILES: CSCCC(NC(=O)CCC(=O)OCC(=O)[C@@]1(O)CCC2[C@@H]3CCC4=CC(=O)C=C[C@]4(C)C3[C@@H](O)C[C@@]21C)C(=O)O (stereo partly specified)
- EC50 [1]: 0.216 µM (active)

SMILES: N#CC1=C(N)Oc2[nH]nc(-c3ccccc3)c2C1c1ccncc1 (stereo unspecified)
- EC50 (Protein RecA): 3.12 µM (active)
- AC50 [2]: 12.3 µM (active)

SMILES: O=C(NCc1ccco1)C(=O)NCC(c1ccco1)N1CCOCC1 (stereo unspecified)
- EC50 [1]: > 195 µM (not active)

SMILES: CC1CCN(C2=NC(=O)/C(=C/c3ccccc3F)S2)CC1
- EC50 [1]: > 195 µM (not active)

SMILES: O=C(Cc1ccccc1)Nc1nc2ccccc2s1
- EC50 [1]: > 195 µM (not active)

SMILES: COc1cc(OC)cc(C(=O)NCC(=O)OCc2nc3ccccc3s2)c1
- EC50 [3]: 14.6 µM (active)
- EC50 (H4): 0.165 µM (active)

SMILES: O=C(COC(=O)/C=C/c1ccccc1[N+](=O)[O-])Nc1ccc(OCc2ccccc2)cc1
- EC50 [3]: 4.21 µM (active)
- EC50 (H4): 40.1 µM (active)

SMILES: O=S(=O)(Nc1ccc2c(c1)OCCO2)c1cccc2nsnc12
- EC50 [1]: 4.32 µM (active)

SMILES: Cc1cc(Nc2ccccc2)c2c([N+](=O)[O-])ccc(C)c2n1
- EC50 [4]: 1.41 µM (active)
- EC50 (Protein RecA): 0.551 µM (active)
- EC50 [5]: > 30 µM (not active)
- AC50 [2]: > 380 µM (inactive)

SMILES: CC(=O)/C=C1\N(C)c2ccc(C)cc2C1(C)C
- EC50 [4]: 1.93 µM (active)
- EC50 [5]: > 60 µM (not active)
- AC50 (INS1): 5.32 µM (active)

SMILES: CCOC(=O)C1C(=O)OC(C)(C)C1C(C)C(=O)c1ccc(C)cc1 (stereo unspecified)
- EC50 [1]: > 195 µM (not active)

SMILES: CN(C)c1ccc(NC(S)=NC23CC4CC(CC(C4)C2)C3)cc1
- EC50 [3]: 20.6 µM (active)
- EC50 (H4): 17.1 µM (active)
- AC50 (INS1): 83.2 µM (active)

SMILES: O=C(CCl)c1ccc(Cc2ncc(C(F)(F)F)cc2Cl)s1
- EC50 (Streptococcus): 6.13 µM (active)
- EC50 (Protein RecA): 1.69 µM (active)
- AC50 [2]: 3.57 µM (active)
- EC50 [6]: 4.31 µM (active)
- EC50 (Streptokinase A): 3.38 µM (active)

SMILES: O=C(CC1C(=O)NCCN1Cc1ccc(-c2ccccc2)cc1)NC1CCC1 (stereo unspecified)
- AC50 (INS1): > 260 µM (inactive)

SMILES: Cc1ccc(NC(=O)NC(=O)CN2CCN(c3ccc(O)cc3)CC2)c(C)c1
- IC50 [7]: 64.9 µM (active)
- EC50 [1]: > 195 µM (not active)

SMILES: C=CCN1C(=O)NC(c2ccc(OC)cc2)(C(F)(F)F)S/C1=C(\C#N)c1nnc(N2CCOCC2)n1-c1ccccc1 (stereo unspecified)
- EC50 (Protein RecA): 9.73 µM (active)
- AC50 [2]: 6.76 µM (active)

SMILES: O=C(COc1ccc(F)cc1)Nc1cc(Cl)ccc1-n1cncn1
- EC50 [1]: > 195 µM (not active)

SMILES: CC(C)(C)C(=O)/C=C/c1ccc(Oc2ccccc2)cc1
- EC50 [1]: > 195 µM (not active)

SMILES: O=C1C(/C=C(\O)c2ccccc2)=NCC2c3ccccc3CCN12 (stereo unspecified)
- EC50 [3]: 0.491 µM (active)
- EC50 (H4): 8.18 µM (active)

SMILES: CN1N=C(C(C)(C)C)CS/C1=N/c1ccccc1
- AC50 (INS1): > 260 µM (inactive)
